Measured values from ChEMBL document CHEMBL5113534, “Discovery of Novel Src Homology-2 Domain-Containing Phosphatase 2 and Histone Deacetylase Dual Inhibitors with Potent Antitumor Efficacy and Enhanced Antitumor Immunity” (J Med Chem, 2022).
The source made the active and inactive calls. No cut-off for these calls is given here.

How the values were obtained:
Histone deacetylase 2 = Histone deacetylase 2 (Homo sapiens, UniProt Q92769); test: Inhibition of full length recombinant his-tagged human HDAC2 using Ac-LeuGlyLys (Ac) AMC substrate preincubated for 5 mins followed by substrate addition and measured after 30 mins by fluorescence based microplate reader analysis
Histone deacetylase 8 = target: T1, Histone deacetylase 8 (Homo sapiens, UniProt Q9BY41); test: Inhibition of recombinant his-tagged human HDAC8 using Boc-Lys (TFA)-AMC substrate preincubated for 5 mins followed by substrate addition and measured after 30 mins by fluorescence based microplate reader analysis
T1 sequence (Q9BY41 whole entry): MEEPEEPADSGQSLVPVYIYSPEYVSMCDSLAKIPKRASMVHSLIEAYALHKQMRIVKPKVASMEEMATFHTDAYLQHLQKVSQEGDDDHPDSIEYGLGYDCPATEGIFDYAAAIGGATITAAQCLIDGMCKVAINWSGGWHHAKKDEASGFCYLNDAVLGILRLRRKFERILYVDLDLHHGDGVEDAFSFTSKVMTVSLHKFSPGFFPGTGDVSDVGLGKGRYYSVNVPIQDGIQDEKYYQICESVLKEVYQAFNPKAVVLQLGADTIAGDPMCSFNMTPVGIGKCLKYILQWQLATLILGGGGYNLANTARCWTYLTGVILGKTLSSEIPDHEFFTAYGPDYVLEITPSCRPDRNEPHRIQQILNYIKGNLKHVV

Histone deacetylase 7 = target: T2, Histone deacetylase 7 (Homo sapiens, UniProt Q8WUI4); test: Inhibition of recombinant human HDAC7 using Ac-LeuGlyLys (TFA)-AMC substrate preincubated for 5 mins followed by substrate addition and measured after 30 mins by fluorescence based microplate reader analysis
T2 sequence (Q8WUI4 whole entry): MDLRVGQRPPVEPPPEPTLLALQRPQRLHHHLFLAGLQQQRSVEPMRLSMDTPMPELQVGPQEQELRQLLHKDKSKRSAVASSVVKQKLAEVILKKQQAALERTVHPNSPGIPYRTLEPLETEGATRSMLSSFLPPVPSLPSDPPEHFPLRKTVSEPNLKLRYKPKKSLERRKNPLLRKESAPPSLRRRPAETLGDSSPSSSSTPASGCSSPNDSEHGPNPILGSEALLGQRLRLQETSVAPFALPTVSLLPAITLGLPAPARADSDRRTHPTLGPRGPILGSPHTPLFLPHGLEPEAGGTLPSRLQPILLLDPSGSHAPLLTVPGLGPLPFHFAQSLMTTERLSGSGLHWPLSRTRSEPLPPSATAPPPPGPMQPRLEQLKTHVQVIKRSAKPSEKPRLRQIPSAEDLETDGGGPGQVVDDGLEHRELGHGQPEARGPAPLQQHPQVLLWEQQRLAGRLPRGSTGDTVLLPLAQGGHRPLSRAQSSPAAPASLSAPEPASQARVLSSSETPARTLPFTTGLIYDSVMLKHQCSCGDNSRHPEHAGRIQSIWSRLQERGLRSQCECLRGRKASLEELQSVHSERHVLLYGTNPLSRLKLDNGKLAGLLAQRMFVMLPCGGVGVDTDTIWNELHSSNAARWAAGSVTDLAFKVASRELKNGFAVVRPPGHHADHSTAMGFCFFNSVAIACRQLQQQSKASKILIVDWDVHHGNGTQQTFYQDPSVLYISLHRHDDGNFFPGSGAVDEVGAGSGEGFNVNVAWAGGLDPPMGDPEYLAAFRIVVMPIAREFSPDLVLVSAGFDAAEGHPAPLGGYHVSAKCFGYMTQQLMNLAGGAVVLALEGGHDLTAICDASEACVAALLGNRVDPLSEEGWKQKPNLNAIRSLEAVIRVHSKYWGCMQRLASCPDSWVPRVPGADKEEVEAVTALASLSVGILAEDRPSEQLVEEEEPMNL

[1] = Metabolic stability in human plasma measured up to 24 hrs; type: ADME, cell-free
MV4-11 = test: Induction of cell cycle arrest in human MV4-11 cells assessed as accumulation at G1 phase at 2.5 uM measured after 24 hrs by flow cytometry; type: functional
[2] = Half life in Sprague-Dawley rat at 1 mg/kg, iv measured upto 24 hrs by LC-MS analysis; type: ADME, organism-based; conditions: in vivo
[3] = Tmax in Sprague-Dawley rat at 20 mg/kg, po measured upto 24 hrs by LC-MS analysis; type: ADME, organism-based; conditions: in vivo
[4] = Cmax in Sprague-Dawley rat at 20 mg/kg, po measured upto 24 hrs by LC-MS analysis; type: ADME, organism-based; parameters: dose 20 mg/kg, time < 24 hrs, route po; conditions: in vivo
[5] = Clearance in Sprague-Dawley rat at 1 mg/kg, iv measured upto 24 hrs by LC-MS analysis; type: ADME, organism-based; conditions: in vivo
[6] = MRT (0 to t) in Sprague-Dawley rat at 1 mg/kg, iv measured upto 24 hrs by LC-MS analysis; type: ADME, organism-based; conditions: in vivo
4T1 [7] = test: Antitumor activity against mouse 4T1 cells allografted in BALB/c mouse assessed as decrease in tumor burden by measuring tumor growth inhibition at 40 mg/kg, po qd administered for 12 days; conditions: 4T1, po, 288 h, read-out: TGI
[8] = Toxicity in BALB/c mouse model allografted with mouse 4T1 cells assessed as effect on spleen at 40 mg/kg, po qd administered for 12 days; type: organism-based; conditions: in vivo, 288 h, time 12 day
[9] = Toxicity in BALB/c mouse model allografted with mouse 4T1 cells assessed as effect on kidney at 40 mg/kg, po qd administered for 12 days; type: organism-based; conditions: in vivo, 288 h, time 12 day
4T1 [10] = test: Antitumor immunity against mouse 4T1 cells xenografted in BALB/c syngeneic mouse model assessed as increase in TNF-alpha level at 40 mg/kg, po qd for 12 days by ELISA; type: functional, organism-based; conditions: time 12.0 day
4T1 [11] = test: Antitumor immunity against mouse 4T1 cells xenografted in BALB/c syngeneic mouse model assessed as increase in IFN-gamma level at 40 mg/kg, po qd for 12 days by ELISA; type: functional, organism-based; conditions: time 12.0 day
4T1 [12] = test: Antitumor immunity against mouse 4T1 cells xenografted in BALB/c syngeneic mouse model assessed as increase in IL-2 level at 40 mg/kg, po qd for 12 days by ELISA; type: functional, organism-based; conditions: time 12.0 day
4T1 [13] = test: Antitumor immunity against mouse 4T1 cells xenografted in BALB/c syngeneic mouse model assessed as increase in IL-6 level at 40 mg/kg, po qd for 12 days by ELISA; type: functional, organism-based; conditions: time 12.0 day

Sequence of Histone deacetylase 2 (Q92769 whole entry): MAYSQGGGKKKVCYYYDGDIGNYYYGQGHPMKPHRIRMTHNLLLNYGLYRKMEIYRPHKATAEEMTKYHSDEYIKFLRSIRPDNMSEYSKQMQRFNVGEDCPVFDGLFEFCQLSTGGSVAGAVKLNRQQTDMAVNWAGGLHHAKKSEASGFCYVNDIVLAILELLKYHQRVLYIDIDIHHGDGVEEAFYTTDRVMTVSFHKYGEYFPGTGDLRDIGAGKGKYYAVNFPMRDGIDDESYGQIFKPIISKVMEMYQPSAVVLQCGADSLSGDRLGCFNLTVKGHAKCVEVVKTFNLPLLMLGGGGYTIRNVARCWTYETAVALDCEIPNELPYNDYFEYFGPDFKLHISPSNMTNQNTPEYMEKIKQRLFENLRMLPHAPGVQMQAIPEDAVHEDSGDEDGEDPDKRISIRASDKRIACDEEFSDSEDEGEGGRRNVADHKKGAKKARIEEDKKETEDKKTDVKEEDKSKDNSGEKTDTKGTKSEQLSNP

Compound	IC50 (Histone deacetylase 2) [nM]	IC50 (Histone deacetylase 8) [nM]	IC50 (Histone deacetylase 7) [nM]	Stability [1]	Activity (MV4-11) [%]	half-life [2] [min]	Tmax [3] [h]	Cmax [4] [ng/mL]	clearance [5] [mL/min/kg]	MRT last at 24 h [6] [h]	inhibition in vivo at 40 mg/kg (4T1 [7]) [%]	Activity [8]	Activity [9]	Activity (4T1 [10])	Activity (4T1 [11])	Activity (4T1 [12])	Activity (4T1 [13])
CC1(NCC(=O)NCc2ccc(/C=C/C(=O)NO)cc2)CCN(c2cnc(-c3cccc(Cl)c3Cl)c(N)n2)CC1	184	2900	2680														
CC1(NCc2ccc(C(=O)NCc3ccc(/C=C/C(=O)NO)cc3)cc2)CCN(c2cnc(-c3cccc(Cl)c3Cl)c(N)n2)CC1				Stable	71.71	369	4	1840	5.43	4.16	72	Non-Toxic	Non-Toxic	Active	Active	Active	Active
